From PMC4979471 (Cell Death Discovery, 2015)
Where two headings read alike, the source gives them in different places.

Assays:
Test in all cases: Kinase selectivity, P33-radiolabeled assay
Assay type in all cases: biochemical
Conditions in all cases: 10 μM ATP
DMPK2 = target: T1, DMPK2 (Homo sapiens, UniProt Q6DT37)
T1 construct: purchased Reaction Biology Corp
Outline: (§1)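 Activity relative to DMSO controls (%) was measured for compound at 10 μM. Assays ran at 10 μM ATP, in duplicate.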

NEK9 = target: T2, NEK9 (Homo sapiens, UniProt Q8TD19)
T2 construct: purchased Reaction Biology Corp
T2 sequence (Q8TD19 1-979): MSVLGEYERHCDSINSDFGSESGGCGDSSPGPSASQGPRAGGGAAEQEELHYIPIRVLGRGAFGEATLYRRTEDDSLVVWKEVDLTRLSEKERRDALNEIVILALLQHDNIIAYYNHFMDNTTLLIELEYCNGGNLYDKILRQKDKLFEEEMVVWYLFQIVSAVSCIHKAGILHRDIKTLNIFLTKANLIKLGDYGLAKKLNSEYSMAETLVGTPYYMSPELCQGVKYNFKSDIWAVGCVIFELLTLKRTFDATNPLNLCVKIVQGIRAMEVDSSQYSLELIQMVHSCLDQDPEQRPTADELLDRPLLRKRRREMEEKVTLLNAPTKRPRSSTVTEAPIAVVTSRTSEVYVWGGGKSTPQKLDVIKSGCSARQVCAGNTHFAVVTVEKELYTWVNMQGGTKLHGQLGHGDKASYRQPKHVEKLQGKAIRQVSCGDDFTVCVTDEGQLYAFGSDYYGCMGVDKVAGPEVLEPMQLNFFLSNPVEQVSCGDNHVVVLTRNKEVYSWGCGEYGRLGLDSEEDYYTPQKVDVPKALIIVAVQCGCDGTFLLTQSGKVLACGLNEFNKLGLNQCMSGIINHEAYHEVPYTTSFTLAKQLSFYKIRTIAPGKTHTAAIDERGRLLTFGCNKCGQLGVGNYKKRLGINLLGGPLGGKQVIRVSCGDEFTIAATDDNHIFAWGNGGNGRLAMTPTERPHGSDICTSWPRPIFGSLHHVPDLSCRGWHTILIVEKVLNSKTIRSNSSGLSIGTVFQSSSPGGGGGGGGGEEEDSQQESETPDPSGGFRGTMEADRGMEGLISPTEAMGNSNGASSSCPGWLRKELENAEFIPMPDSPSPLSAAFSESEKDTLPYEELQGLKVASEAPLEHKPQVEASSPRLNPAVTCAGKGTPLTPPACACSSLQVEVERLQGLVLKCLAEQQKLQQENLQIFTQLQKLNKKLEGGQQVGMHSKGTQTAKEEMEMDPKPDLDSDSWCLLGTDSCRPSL
Outline: as §1

EPHA7 = target: T3, EPHA7 (Homo sapiens, UniProt Q15375)
T3 construct: purchased Reaction Biology Corp
T3 sequence (Q15375 28-998): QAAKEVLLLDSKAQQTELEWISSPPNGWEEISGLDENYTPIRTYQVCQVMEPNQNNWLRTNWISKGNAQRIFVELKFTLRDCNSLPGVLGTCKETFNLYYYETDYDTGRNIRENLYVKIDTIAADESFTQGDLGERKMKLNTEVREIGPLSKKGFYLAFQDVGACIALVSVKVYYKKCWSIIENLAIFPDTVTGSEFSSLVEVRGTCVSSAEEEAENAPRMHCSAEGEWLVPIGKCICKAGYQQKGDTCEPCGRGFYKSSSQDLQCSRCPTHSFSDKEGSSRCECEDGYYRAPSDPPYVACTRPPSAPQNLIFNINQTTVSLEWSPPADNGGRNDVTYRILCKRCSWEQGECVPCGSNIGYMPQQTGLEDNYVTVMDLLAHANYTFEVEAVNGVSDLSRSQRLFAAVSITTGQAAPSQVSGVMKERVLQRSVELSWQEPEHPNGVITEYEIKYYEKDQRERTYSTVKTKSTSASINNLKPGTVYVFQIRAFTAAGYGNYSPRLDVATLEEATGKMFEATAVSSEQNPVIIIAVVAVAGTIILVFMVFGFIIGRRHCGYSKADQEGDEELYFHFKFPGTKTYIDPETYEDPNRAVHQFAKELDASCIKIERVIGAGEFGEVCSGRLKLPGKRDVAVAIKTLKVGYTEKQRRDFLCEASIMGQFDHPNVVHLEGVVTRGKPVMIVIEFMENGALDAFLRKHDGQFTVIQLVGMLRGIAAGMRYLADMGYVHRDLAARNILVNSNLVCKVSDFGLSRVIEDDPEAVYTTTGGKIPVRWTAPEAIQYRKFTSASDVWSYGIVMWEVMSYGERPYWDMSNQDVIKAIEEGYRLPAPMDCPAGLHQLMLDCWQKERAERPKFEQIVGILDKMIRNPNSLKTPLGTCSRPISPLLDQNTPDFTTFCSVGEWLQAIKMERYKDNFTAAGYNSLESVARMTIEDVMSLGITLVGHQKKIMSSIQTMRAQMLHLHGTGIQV
Outline: as §1

PLK2 = target: T4, PLK2 (Homo sapiens, UniProt Q9NYY3)
T4 construct: purchased Reaction Biology Corp
T4 sequence (Q9NYY3 whole entry): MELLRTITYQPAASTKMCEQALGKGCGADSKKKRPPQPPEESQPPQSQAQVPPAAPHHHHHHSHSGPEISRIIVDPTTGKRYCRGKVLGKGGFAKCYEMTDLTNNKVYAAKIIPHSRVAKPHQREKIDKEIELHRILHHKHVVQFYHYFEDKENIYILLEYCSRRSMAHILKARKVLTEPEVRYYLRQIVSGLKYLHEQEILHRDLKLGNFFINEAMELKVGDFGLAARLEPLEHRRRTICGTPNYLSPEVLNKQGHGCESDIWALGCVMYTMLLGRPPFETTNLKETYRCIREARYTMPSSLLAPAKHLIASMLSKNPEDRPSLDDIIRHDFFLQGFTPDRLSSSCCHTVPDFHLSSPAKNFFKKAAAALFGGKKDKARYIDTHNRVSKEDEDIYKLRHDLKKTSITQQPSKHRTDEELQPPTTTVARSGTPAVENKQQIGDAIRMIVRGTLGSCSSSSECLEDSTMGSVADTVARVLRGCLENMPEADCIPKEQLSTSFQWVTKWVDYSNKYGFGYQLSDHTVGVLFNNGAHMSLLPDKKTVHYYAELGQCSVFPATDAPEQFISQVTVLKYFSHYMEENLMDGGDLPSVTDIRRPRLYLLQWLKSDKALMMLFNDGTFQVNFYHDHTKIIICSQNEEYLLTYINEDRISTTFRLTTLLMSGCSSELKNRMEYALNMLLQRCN
Outline: as §1

STK25/YSK1 = target: T5, STK25/YSK1 (Homo sapiens, UniProt O00506)
T5 construct: purchased Reaction Biology Corp
T5 sequence (O00506 whole entry): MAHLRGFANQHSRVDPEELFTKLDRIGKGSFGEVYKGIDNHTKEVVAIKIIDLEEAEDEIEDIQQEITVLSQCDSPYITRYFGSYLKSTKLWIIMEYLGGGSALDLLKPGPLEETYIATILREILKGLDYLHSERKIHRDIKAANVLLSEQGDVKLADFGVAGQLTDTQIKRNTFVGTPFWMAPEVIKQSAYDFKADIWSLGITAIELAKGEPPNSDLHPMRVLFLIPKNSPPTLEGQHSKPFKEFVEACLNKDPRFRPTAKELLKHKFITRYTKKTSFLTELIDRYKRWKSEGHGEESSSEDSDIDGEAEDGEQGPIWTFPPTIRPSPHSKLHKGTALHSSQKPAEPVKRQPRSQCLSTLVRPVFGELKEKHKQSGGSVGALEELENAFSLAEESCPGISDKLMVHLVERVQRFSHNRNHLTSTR
Outline: as §1

MKK4 = target: T6, MKK4 (Homo sapiens, UniProt P45985)
T6 construct: purchased Reaction Biology Corp
T6 sequence (P45985 1-399): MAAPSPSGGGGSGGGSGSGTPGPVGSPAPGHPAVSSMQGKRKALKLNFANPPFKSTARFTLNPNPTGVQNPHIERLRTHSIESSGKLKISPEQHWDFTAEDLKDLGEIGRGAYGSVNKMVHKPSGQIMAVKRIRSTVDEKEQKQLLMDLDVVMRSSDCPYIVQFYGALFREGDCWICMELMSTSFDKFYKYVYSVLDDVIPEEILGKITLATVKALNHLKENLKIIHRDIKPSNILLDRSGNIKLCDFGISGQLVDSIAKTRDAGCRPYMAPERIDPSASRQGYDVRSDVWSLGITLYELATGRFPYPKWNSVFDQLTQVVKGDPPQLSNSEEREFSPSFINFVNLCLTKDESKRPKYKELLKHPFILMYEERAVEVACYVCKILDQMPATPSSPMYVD
Outline: as §1

TLK1 = target: T7, TLK1 (Homo sapiens, UniProt Q9UKI8)
T7 construct: purchased Reaction Biology Corp
T7 sequence (Q9UKI8 1-766): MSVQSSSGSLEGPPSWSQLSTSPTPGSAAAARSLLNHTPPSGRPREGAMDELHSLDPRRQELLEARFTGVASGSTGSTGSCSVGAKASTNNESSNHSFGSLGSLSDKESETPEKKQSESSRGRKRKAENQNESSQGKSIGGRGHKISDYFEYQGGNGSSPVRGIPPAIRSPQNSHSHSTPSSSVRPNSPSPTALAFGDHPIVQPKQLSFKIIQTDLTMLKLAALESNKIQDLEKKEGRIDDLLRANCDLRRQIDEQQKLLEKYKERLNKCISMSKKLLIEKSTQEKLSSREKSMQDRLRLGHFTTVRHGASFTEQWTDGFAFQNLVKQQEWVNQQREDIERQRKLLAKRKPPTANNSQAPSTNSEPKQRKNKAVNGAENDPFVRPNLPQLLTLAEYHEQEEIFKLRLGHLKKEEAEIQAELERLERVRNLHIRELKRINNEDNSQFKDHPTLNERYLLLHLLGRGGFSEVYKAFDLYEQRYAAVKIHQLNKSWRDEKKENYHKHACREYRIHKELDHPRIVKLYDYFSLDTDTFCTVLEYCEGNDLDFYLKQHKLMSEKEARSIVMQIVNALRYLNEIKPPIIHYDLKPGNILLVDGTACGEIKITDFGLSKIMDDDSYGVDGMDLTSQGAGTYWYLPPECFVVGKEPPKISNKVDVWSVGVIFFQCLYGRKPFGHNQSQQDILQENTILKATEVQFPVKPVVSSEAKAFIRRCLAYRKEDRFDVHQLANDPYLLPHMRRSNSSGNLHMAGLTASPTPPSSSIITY
Outline: as §1

[1] = read-out: % Enzyme Activity (relative to DMSO controls) AVG
[2] = read-out: % Enzyme Activity (relative to DMSO controls) Data 1
[3] = read-out: % Enzyme Activity (relative to DMSO controls) Data 2

T1 sequence (Q6DT37 whole entry): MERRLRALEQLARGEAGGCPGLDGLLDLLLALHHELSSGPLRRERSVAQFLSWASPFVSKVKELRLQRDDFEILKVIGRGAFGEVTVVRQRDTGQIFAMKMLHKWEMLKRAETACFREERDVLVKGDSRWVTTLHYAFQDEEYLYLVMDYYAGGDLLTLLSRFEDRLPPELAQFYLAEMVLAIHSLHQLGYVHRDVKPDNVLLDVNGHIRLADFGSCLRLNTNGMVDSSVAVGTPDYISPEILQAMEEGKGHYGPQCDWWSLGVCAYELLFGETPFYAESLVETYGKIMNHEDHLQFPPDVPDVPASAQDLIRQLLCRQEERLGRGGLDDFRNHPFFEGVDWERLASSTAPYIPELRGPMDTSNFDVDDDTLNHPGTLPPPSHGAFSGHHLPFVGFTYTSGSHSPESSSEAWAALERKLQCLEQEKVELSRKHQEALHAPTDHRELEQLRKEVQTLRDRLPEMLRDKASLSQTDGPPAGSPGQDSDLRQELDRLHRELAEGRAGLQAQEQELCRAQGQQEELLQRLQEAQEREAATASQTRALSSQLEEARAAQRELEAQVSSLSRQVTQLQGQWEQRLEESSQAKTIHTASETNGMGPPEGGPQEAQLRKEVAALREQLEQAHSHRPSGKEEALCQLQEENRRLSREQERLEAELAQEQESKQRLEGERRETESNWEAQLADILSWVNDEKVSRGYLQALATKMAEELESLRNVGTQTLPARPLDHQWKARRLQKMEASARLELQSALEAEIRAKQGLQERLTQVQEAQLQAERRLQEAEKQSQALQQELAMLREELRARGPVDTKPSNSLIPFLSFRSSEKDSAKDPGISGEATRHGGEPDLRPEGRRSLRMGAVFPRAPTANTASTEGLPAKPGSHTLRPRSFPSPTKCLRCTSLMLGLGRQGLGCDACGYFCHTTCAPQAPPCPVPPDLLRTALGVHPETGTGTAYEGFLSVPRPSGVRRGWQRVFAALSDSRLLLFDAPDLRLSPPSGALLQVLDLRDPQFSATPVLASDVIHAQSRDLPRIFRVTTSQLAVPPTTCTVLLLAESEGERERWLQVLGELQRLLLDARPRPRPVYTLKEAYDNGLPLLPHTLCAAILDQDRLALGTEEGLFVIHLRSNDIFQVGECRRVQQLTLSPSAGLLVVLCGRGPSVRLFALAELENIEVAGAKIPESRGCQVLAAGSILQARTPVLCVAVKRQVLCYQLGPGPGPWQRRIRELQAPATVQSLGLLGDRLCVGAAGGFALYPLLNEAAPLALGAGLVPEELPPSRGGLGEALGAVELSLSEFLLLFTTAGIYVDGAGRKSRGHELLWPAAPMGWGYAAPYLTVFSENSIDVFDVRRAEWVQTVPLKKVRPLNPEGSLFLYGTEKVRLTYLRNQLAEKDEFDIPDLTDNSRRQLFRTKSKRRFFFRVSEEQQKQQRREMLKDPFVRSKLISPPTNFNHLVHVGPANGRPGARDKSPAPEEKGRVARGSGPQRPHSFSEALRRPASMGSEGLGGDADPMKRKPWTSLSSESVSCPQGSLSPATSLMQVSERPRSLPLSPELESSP

With `CC(C)(C)C(=O)N1N=CC[C@H]1c1ccccc1` [GSK′963] the remaining activity at 10 µM (DMPK2; [1]) was 139%, the remaining activity at 10 µM (DMPK2; [2]) was 140% and the remaining activity at 10 µM (DMPK2; [3]) was 139%. It also gave a remaining activity at 10 µM (NEK9; [1]) of 92.8%, a remaining activity at 10 µM (NEK9; [2]) of 92.1% and a remaining activity at 10 µM (NEK9; [3]) of 93.5%. The remaining activity at 10 µM (EPHA7; [1]) was 111%, the remaining activity at 10 µM (EPHA7; [2]) was 109% and the remaining activity at 10 µM (EPHA7; [3]) was 112%. For the same compound, the remaining activity at 10 µM (PLK2; [1]) was 110%, the remaining activity at 10 µM (PLK2; [2]) was 108% and the remaining activity at 10 µM (PLK2; [3]) was 111%. The remaining activity at 10 µM (STK25/YSK1; [1]) was 96.1%, the remaining activity at 10 µM (STK25/YSK1; [2]) was 96.7% and the remaining activity at 10 µM (STK25/YSK1; [3]) was 95.4%. It also gave a remaining activity at 10 µM (MKK4; [1]) of 105%, a remaining activity at 10 µM (MKK4; [2]) of 105% and a remaining activity at 10 µM (MKK4; [3]) of 105%. The remaining activity at 10 µM (TLK1; [1]) was 97.5%, the remaining activity at 10 µM (TLK1; [2]) was 101% and the remaining activity at 10 µM (TLK1; [3]) was 93.9%.
